We go through 5 molecules from article PMC8997913, “Lichen Secondary Metabolites Inhibit the Wnt/β-Catenin Pathway in Glioblastoma Cells and Improve the Anticancer Effects of Temozolomide” (Cells, 2022).

The nature of data set [1]: Parallel artificial membrane permeability assay for the blood-brain barrier (PAMPA-BBB). Format: in vitro ADME. The conditions noted are these: pH 7.4, 4 h, 37 °C; for Papp at 4 h, 24.75 µg/mL: mean ± SEM, n = 3, Pe > 1.5 high, < 1.5 low permeation predicted, read-out: Pe × 10^−6. How it is done:
The parallel artificial membrane permeability assay (PAMPA) for the blood-brain barrier (BBB) (Pion Inc., Billerica, MA, USA) was used to analyze whether the lichen secondary metabolites tested in this study were able to cross the BBB. The stock solutions (5 mg/mL) of tested compounds were prepared using DMSO. Next, the donor solution (24.75 μg/mL) using Prisma buffer (pH = 7.4; Prisma HT, Pion Inc., Billerica, MA, USA) were made. Firstly, 180 μL of the donor solution were added to the donor wells. Then the filter membranes were coated with 5 μL BBB-1 lipid solution (Pion Inc., Billerica, MA, USA) and the acceptor wells were filled with 200 μL BSB (Brain Sink Buffer, Pion Inc., Billerica, MA, USA). The plates were sandwiched together and incubated for 4 h at 37 °C (Thermo Scientific MaxQ 4450, Waltham, MA, USA). The results were determined by spectroscopic analysis (Multiskan GO microplate reader, Waltham, MA, USA), with the appropriate wavelength for a given compound (240 nm for […] salazinic acid, 250 nm for atranorin and squamatic acid, 263 nm for physodic acid, and 270 nm for lecanoric acid). […] Pe is the effective permeability coefficient (cm/s), VD-donor volume, VA-acceptor volume, Ceq-equilibrium concentration, Ceq=CD×VD+CA×VA/VD+VA , S-membrane area, and t-incubation time (in seconds). […] Samples were analyzed in triplicate, and the average was reported.

A further data set concerns U-138 MG cells. The data set can be described thus: MTT test, U-138 MG. Format: cell-based, human. The note with it: 48 h; for IC50: Homo sapiens, U138-MG, three independent experiments, read-out: IC50 [uM] ± SEM U-138 MG. How it is done: Three human GBM cell lines were used in this study, i.e., A-172 (ATCC-CRL-1620), T98G (92090213), and U-138 MG (ATCC-HTB-16). The A-172 and U-138 MG cell lines were purchased from the American Type Culture Collection (ATCC), whereas the T98G cell line was obtained from the European Collection of Authenticated Cell Cultures (ECACC). It has been confirmed by us that O^6-methylguanine-DNA methyltransferase (MGMT), the key factor determining the response to alkylating agents, such as TMZ, is expressed in T98G and U-138 MG cells, whereas in A-172 the expression of MGMT is silenced by promoter methylation. Therefore, the cell lines differ in terms of TMZ sensitivity; A-172 is regarded as TMZ sensitive, whereas T98G and U-138 MG are TMZ resistant.
The cells were grown as monolayers (2D cell culture) in the recommended media: A-172 were grown in the ATCC-formulated DMEM (Merck, Darmstadt, Germany), whereas T98G and U-138 MG cell lines were grown in the ATCC-formulated EMEM (Merck, Darmstadt, Germany). These media were supplemented with FBS (Biowest, Nuaillé, France) to a final concentration of 10%, as well as antibiotics (penicillin and streptomycin) (Merck, Darmstadt, Germany) to the final concentrations of 1%. For the experiments, the amount of FBS was reduced to 5%. The medium for the T98G cell line was supplemented with 2 mM glutamine, 1% nonessential amino acids, and 1% sodium pyruvate (all purchased from Merck, Darmstadt, Germany).
In order to analyze the cytotoxicity of the analyzed lichen secondary metabolites, as well as to establish the appropriate concentrations for further analysis (allowing the survival of >70% of cells), we performed the MTT test. The procedure of the test was described previously. Briefly, the cells (10,000 cells per well) were seeded on the 96-well plates and left for 24 h. Afterwards, the analyzed compounds in the concentration range of 1 µM up to 100 µM were added to the cells and left for 48 h incubation. DMSO treated cells served as control. After the above-mentioned time, the cells were washed twice with warm PBS and incubated for 3 h in the presence of a fresh medium containing MTT salt (0.5 mg/mL). Then the formazan crystals were dissolved in acidic isopropanol. The absorbance was measured at 570 and 690 nm on a Tecan Infinite M200 microplate reader (Grödig, Austria). The experiments were repeated at least three times.

Data set [2] relates to T98G cells. As to the kind of experiment: Cell cycle distribution, flow cytometry, T98G. Format: cell-based, human. The note with it: 48 h. How it is done: (§1) Based on the MTT test, the lichen secondary metabolite concentrations allowing the survival of more than 70% of cells were chosen for the subsequent experiments. The compounds were added as follows: A-172 cells—atranorin 25 µM, caperatic acid 50 µM, physodic acid 25 µM, squamatic acid 25 µM, salazinic acid 50 µM, and lecanoric acid 100 µM; T98G cells—atranorin 50 µM, caperatic acid 100 µM, physodic acid 25 µM, squamatic acid 50 µM, salazinic acid 100 µM, and lecanoric acid 100 µM; U-138 MG cells—atranorin 25 µM, caperatic acid 50 µM, physodic acid 25 µM, squamatic acid 50 µM, salazinic acid 50 µM, and lecanoric acid 100 µM. As far as the TMZ treatment is concerned, it was added in the concentrations depending on the MGMT expression and methylation status, i.e., TMZ 30 µM was added to the A-172 cell line, and TMZ 100 µM was added to both the T98G and U-138 MG cell lines. In the case of the 2D culture, the cells were treated with the compounds 24 h after seeding, whereas, in regard to 3D culture, 5 days were needed to form spheroids. All subsequent analyses were performed 48 h after treatment.
The Muse Cell Cycle Kit and the Muse Cell Cycle Software (both Merck, Darmstadt, Germany) were used to quantitatively measure the percentage of cells in the G0/G1, S, and G2/M phases of the cell cycle. The assay utilizes the nuclear DNA intercalating stain propidium iodide and RNAse A in a formulation. Propiodium iodide discriminates cells at different stages of the cell cycle, based on differential DNA content, while the presence of RNAse increases the specificity of DNA staining. Briefly, the cells were seeded on 6-well plates (100,000 cells per well) and incubated for 24 h. Afterward, the lichen secondary metabolites were added to the concentrations chosen based on the MTT test, allowing >70% of cell survival. 0.5% DMSO and 100 nM topotecan were used as negative and positive controls, respectively. The analysis was performed after a 48 h incubation with lichen secondary metabolites and started with washing the cells with PBS, followed by cell fixation with ice-cold ethanol and overnight incubation at −20 °C. Following steps included cell re-washing with PBS, then a 30 min incubation in the dark with propiodium iodide-RNAse A formulation, and a final analysis on Muse™ Cell Analyzer (Merck, Darmstadt, Germany).

For data set [3], the system named is T98G cells. As to the kind of experiment: Apoptosis, caspase-3/7 and 7-AAD flow cytometry, T98G. Format: cell-based, human. The note with it: 48 h, topotecan 100 nM. How it is done: as §1
The fluorescent-based analysis of apoptosis using Muse® Caspase-3/7 Kit was performed in order to analyze the percentage of live, early, and late apoptotic; total apoptotic; and dead cells in A-172, T98G, and U-138 MG GBM cells treated with lichen secondary metabolites. The principle of the method relies on the measurement of the activity of executioner caspases, i.e., caspase-3 and caspase-7, as well as analyzing the integrity of the cell membrane with the use of a dead cell marker 7-AAD. Cell seeding and treatment followed the same protocol as for cell cycle or ROS generation analysis, while the subsequent procedures were performed according to the manufacturer’s recommendations.

Entries after “also recorded” stand apart in the source; their conditions may differ.

With `COC(=O)c1c(C)cc(OC(=O)c2c(C)cc(O)c(C=O)c2O)c(C)c1O` [Atranorin], the Papp at 4 h, 24.75 µg/mL in data set [1] is 2.2 ± 0.1 ×10⁻⁶ cm/s. Further, the IC50 in the data set with U-138 MG cells amounted to 47.8 ± 2.16 µM. In addition, in the data set with T98G cells [2], the “number of cells in G0/G1 phases vs control” value is “slightly increased” and the “number of cells in S phase vs control” value is “reduced”.
For the molecule `CCCCCCCCCCCCCCC(C(=O)O)C(O)(CC(=O)OC)C(=O)O` (centres unmarked) [Caperatic acid], the Papp at 4 h, 24.75 µg/mL in data set [1] was 5.2 ± 0.1 ×10⁻⁶ cm/s. For the same molecule, the IC50 in the data set on U-138 MG cells was above 100 µM. In addition, the “number of cells in G0/G1 phases vs control” value with T98G cells [2] is on record as “diminished”.
For `Cc1cc(OC(=O)c2c(C)cc(O)cc2O)cc(O)c1C(=O)O` [Lecanoric acid], the Papp at 4 h, 24.75 µg/mL in data set [1] was 1.7 ± 0.2 ×10⁻⁶ cm/s. Besides, the IC50 in the data set on U-138 MG cells is above 100 µM. Also, the “number of apoptotic cells vs control” value in the data set on T98G cells [3] is “significant increase; also recorded: induced apoptosis”.
With `Cc1cc(O)c(C=O)c2c1C(=O)Oc1c(CO)c(O)c3c(c1O2)C(O)OC3=O` (centres unmarked) [Salazinic acid], the “Pe × 10^−6 (cm/s), class” value in data set [1] is “np (np—classified as non-permeable (i.e., Pe < 0.5 × 10^−6 cm/s))”. For the same molecule, the IC50 with U-138 MG cells is above 100 µM. Besides, in the data set with U-138 MG cells (U-138 MG, 50 µM), the “number of viable cells” value is given as “significantly reduced the number of viable cells”. For the same molecule, in the data set with T98G cells [2], the “number of cells in G0/G1 phases vs control” value was “slightly increased”, the “number of cells in S phase vs control” value is on record as “reduced” and the “percentage of cells in G2/M phases vs control” value is “diminished”. Further, in the data set with T98G cells [3], the “number of apoptotic cells vs control” value is “significant increase; also recorded: induced apoptosis”.
For the molecule `COc1cc(C)c(C(=O)Oc2cc(C)c(C(=O)O)c(O)c2C)c(O)c1C(=O)O` [Squamatic acid], the Papp at 4 h, 24.75 µg/mL in data set [1] is 0.5 ± 0.1 ×10⁻⁶ cm/s. The IC50 in the data set on U-138 MG cells was above 100 µM. Moreover, the “number of apoptotic cells vs control” value with T98G cells [3] is recorded as “significant increase; also recorded: induced apoptosis”.
